The results in this text go back to paper PMC5471521, “Novel selective β1-adrenoceptor antagonists for concomitant cardiovascular and respiratory disease” (The FASEB Journal, 2017).

What is called Ki is the equilibrium dissociation constant of an inhibitor or competing ligand from its target. What is called microsomal CLint is the capacity of the preparation to metabolise the compound, expressed as a volume cleared per time. The term Tmax denotes the time at which the peak concentration occurs.

Data set [1] has as its target noradrenaline transporter (Homo sapiens, UniProt P23975). The experiment in a line: Cerep radioligand-binding assay. The protocol:
(§1) […]; Ki (inhibition constant) was calculated by using the Cheng-Prusoff equation from the mean of duplicate determinations in cell-based receptor radioligand-binding assays. Cerep in vitro pharmacology profiling service was used (see the Supplemental Data for a list of the assays used).

The target of another data set is dopamine transporter (Homo sapiens, UniProt Q01959). The experiment in a line: Cerep radioligand-binding assay. The protocol: as §1
dopamine transporter, sequence (Q01959 whole entry): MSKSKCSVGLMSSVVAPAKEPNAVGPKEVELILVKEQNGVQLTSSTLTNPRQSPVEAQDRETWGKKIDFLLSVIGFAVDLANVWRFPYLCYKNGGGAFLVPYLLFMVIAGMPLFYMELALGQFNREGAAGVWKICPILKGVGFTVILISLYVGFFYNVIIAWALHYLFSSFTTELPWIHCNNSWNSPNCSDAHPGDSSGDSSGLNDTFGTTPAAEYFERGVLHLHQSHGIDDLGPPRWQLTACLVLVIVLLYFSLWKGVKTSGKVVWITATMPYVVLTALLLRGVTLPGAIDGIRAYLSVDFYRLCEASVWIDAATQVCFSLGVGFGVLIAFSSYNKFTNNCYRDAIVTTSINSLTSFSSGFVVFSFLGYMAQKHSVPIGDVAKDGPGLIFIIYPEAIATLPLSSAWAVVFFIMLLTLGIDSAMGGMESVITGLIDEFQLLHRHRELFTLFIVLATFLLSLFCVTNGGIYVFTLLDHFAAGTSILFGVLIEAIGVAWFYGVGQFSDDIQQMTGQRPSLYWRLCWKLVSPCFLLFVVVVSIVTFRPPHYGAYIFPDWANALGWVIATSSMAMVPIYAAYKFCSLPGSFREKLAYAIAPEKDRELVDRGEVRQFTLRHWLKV
Data set [2] relates to HR (β1) and HQC (β2) in conscious rats. Description: In vivo β1- vs. β2-selectivity, oral administration, conscious rats (isoprenaline responses). The conditions noted are these: for Effect on basal and isoprenaline-stimulated HR after oral gavage: lightly sedated rats dosed by oral gavage, measured once fully recovered. More on the design: species or system rat. On the procedure:
Adult male Sprague-Dawley rats, weighing 300−400 g, were chronically instrumented with pulsed Doppler flow probes and intravascular catheters for cardiovascular monitoring and drug administration in a 2-stage surgical protocol as described ([51]). Surgery was performed under general anesthesia (fentanyl and medetomidine, 300 μg/kg of each, i.p.), with reversal and postoperative analgesia provided by atipamezole (1 mg/kg, s.c.) and buprenorphine (0.02 mg/kg, s.c.). Experiments were performed with animals that were fully conscious and unrestrained in home cages and given free access to food and water. Cardiovascular variables were recorded by using a customized, computer-based system (Instrument Development Engineering Evaluation, Maastrich Instruments Bv, Maastrich, The Netherlands) with raw data sampled every 2 ms. Hindquarters vascular conductance (HQC) was calculated as Doppler shift (flow)/mean arterial pressure.
Experiments ran over 3 consecutive days. Lightly sedated rats (propofol at 0.1–0.2 ml of 10 mg/ml, i.v.) that were instrumented for cardiovascular monitoring were administered an oral dose of NDD-825.HCl (1 mg/kg on d 1, 3 mg/kg on d 2, 10 mg/kg on d 3; 10 ml/kg in water) by oral gavage. Each day, responses to isoprenaline infusions were monitored before and at 0.5–1.5 and 3–4 h after oral NDD-825.HCl administration.
Isoprenaline responses shown are absolute values for HR and HQC before the first dose of isoprenaline (baseline) and during the third minute of infusion of each dose. Values at baseline and during the highest isoprenaline dose were tested for statistical significance by using a nonparametric ANOVA test with correction for repeat measures [Quade test ([52])]. A value of P < 0.05 was taken as significant.

Another data set has as its target 5-HT2B (Homo sapiens, UniProt P41595). Description: Cerep receptor radioligand-binding assay. To be noted: concentration-response, Cheng-Prusoff. The protocol:
as §1

Data set [3] is described as follows: Metabolic stability, rat liver microsomes. The conditions noted are these: in the presence of NAD+, NADPH, or in the absence of cofactors. Format: in vitro ADME. On the procedure:
NDD-713.HCl and -825.HCl were incubated (0.02, 0.1, or 0.5 μM at 37°C, 120 min) with human (XenoTech, Kansas City, KS, USA) or rat liver microsomes (BD Biosciences, Brea, CA, USA) at 0.4 mg/ml protein concentration. Metabolic reaction was initiated by addition of NADPH-regenerating system or NADPH-regenerating system with uridine diphosphate glucuronic acid. Samples were quenched at time points by acetonitrile addition. Control samples, which contained neither NADPH, nor uridine diphosphate glucuronic acid, were monitored for degradation. Compound concentrations were determined by ultraperformance LC-MS (UPLC-MS) relative to calibration standards that were prepared in quenched liver microsomes and fitted to exponential decay functions to determine first-order rate constants (k) for substrate depletion. These were used to calculate in vitro intrinsic clearance (CLint) values: CLint = k/microsomal protein content (0.4 mg protein/ml). Metabolic stability assays that used rat liver cytosol (BD Biosciences), human cryopreserved hepatocytes, or rat hepatocytes were carried out similarly. Average viable cell concentrations were determined by Trypan Blue exclusion methods (in the absence of test compounds). Studies were carried out by CDCO.
(Liver microsomes are a subcellular fraction often used to study metabolism.)

The nature of data set [4]: Seven-day oral dose range rat toxicity study. The format is in vivo. On the procedure:
Male Crl:CD rats (9 wk old, weighing 316.8–349.4 g on d 1; Charles River) were administered 1 oral dose of NDD-825.HCl in water that contained 0.5% (w/v) hydroxypropylmethylcellulose K15M, 0.5% (v/v) benzyl alcohol, and 0.4% (v/v) Tween-80 at 20, 90, or 300 mg/kg at a dose volume of 10 ml/kg for 7 consecutive days (4 animals per group). Blood samples were collected before and at time points during the 24 h that followed for bioanalysis. Animals were monitored for adverse clinical signs and body weight. Terminal blood samples were taken for clinical chemistry, and organs were harvested for microscopic examination (see Supplemental Data for full details). Three additional male rats per group received NDD-825.HCl on d 1 only to collect blood samples for plasma bioanalysis of compound toxicokinetics. NDD-825 was quantifiable in plasma of all animals up to 8 h after dose administration; […]. Systemic exposure to NDD-825 in terms of Cmax increased in approximate proportion with increasing dose, whereas for the same dose increase, AUC0-t increased in a supraproportional manner across the entire dose range. […]. […] Study was carried out by Aptuit (Verona, Italy).

Another data set addresses T1, CYP2E1 (Homo sapiens, UniProt P05181).
T1 construct: purchased BD Biosciences
Description: P450 in vitro clearance, recombinant Supersomes. The conditions noted are these: 2 μM, hydrochloride salts used; one value printed for CYP2D6 and CYP2E1. The format is in vitro ADME. On the procedure: (§2) NDD-713.HCl and -825.HCl (2 μM) and cytochrome P450 (P450) reference substrates (see Supplemental Data for full details) were incubated (37°C) with selected recombinant human P450 isoforms (CYP1A2, CYP2A6, CYP2B6, CYP2C8, CYP2C9, CYP2C19, CYP2D6 CYP2E1, and CYP3A4) in heterologously expressed P450 Supersomes (BD Biosciences) that were suspended in […] Tris-HCl buffer (pH 7.4; for CYP2C9) or 100 mM phosphate buffer (pH 7.4; for the other isoforms) at final P450 concentrations of 85 pmol/ml. Reactions were initiated by additions of an NADPH-regenerating system and quenched at time points over 60 min (reference probes) or 120 min (test compounds) by acetonitrile. Quenched samples were centrifuged and supernatants were collected. NDD-713, -825, and probe metabolites were determined by UPLC-MS relative to calibration standards prepared in quenched matrix, and %substrate that remained was calculated relative to the initial sample concentration. The %substrate that remained vs. time was fitted to exponential decay functions to determine the pseudo first-order rate constant (k/min) for substrate depletion. These were normalized to P450 concentrations (pmol/ml) to obtain in vitro CLint values: CLint, in vitro (μl/min/pmol P450) = [k (min^−1)/P450 concentration […]] × 1000. Studies were carried out by CDCO.

The target of the next data set is CYP2D6 (Homo sapiens, UniProt P10635). Description: P450 in vitro clearance, recombinant Supersomes. The format is in vitro ADME. The conditions noted are these: 2 μM, hydrochloride salts used; one value printed for CYP2D6 and CYP2E1. The protocol: as §2
CYP2D6, sequence (P10635 whole entry): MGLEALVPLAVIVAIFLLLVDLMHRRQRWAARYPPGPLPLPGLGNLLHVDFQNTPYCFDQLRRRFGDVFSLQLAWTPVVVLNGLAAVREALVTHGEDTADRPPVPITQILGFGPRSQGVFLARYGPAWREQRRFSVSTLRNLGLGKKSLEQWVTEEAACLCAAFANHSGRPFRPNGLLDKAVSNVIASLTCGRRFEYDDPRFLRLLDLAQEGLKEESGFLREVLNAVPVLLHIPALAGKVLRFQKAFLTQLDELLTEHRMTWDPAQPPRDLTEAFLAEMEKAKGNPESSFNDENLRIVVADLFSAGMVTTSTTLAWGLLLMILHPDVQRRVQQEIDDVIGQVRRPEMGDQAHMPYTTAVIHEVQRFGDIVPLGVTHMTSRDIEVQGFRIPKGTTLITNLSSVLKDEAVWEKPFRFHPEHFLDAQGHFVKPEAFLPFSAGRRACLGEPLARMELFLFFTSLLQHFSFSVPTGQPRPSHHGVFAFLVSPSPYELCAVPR
The mark [5] stands for this setting: concentration-response, Cheng-Prusoff.

noradrenaline transporter, sequence (P23975 whole entry): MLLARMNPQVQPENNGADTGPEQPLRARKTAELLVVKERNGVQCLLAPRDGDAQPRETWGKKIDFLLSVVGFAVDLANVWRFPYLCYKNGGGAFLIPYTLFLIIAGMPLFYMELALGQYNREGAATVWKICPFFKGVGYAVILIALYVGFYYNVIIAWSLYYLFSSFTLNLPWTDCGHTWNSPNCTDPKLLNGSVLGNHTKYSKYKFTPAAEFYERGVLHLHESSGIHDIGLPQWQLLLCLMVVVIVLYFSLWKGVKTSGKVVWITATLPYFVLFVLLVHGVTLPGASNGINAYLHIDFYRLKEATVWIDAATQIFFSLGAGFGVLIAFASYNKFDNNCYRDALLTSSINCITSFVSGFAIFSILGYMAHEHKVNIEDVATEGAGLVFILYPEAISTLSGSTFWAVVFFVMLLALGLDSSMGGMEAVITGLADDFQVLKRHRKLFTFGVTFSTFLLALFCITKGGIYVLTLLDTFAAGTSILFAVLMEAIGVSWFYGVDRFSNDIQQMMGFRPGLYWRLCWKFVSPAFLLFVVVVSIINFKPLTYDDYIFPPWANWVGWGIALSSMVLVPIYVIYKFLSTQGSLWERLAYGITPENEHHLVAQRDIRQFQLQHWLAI
5-HT2B, sequence (P41595 whole entry): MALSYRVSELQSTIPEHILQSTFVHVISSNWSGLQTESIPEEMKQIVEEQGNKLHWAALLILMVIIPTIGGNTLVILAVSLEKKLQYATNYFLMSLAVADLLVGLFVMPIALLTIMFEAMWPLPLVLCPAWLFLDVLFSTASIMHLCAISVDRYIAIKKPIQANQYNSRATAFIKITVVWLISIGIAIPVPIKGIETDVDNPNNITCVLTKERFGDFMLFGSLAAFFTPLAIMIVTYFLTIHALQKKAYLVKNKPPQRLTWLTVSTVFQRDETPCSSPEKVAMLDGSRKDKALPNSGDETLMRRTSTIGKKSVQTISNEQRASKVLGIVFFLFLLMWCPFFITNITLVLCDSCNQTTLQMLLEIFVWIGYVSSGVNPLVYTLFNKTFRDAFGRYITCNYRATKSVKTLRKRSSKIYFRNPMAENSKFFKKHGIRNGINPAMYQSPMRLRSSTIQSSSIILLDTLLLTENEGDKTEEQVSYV
T1 sequence (P05181 whole entry): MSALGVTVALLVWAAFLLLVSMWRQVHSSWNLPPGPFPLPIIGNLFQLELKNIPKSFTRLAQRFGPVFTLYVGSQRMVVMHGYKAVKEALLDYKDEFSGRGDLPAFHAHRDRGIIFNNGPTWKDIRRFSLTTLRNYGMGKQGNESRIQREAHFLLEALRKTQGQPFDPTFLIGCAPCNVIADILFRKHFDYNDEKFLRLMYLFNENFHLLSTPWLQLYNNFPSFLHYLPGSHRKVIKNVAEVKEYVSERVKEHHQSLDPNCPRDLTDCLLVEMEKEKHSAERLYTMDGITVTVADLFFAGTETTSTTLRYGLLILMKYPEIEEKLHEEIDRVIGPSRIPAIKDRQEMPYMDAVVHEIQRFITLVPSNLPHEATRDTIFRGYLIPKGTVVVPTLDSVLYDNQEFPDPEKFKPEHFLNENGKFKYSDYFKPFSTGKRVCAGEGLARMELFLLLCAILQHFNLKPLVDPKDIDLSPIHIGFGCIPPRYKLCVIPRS

As to `NC(=O)c1ccc(OCCNC[C@H](O)COc2ccc3c(c2)OC[C@@H](COCC2CC2)O3)cc1` [NDD-713], in data set [1], the “β1-AR vs. noradrenaline transporter selectivity” value came to 185 fold. Further, the inhibition constant (Ki) in data set [1] (setting [5]) was 2800 nM; at dopamine transporter (setting [5]), 800 nM; at 5-HT2B, greater than 10000 nM. Also, on dopamine transporter, the “β1-AR vs. dopamine transporter selectivity” value was determined as 53 fold. In data set [2], the “Effect on basal and isoprenaline-stimulated HR after oral gavage” value is “caused a reduction of basal and isoprenaline-stimulated HR”. Further, the intrinsic metabolic clearance (microsomal CLint) in data set [3] is less than 0.1 µL/min/mg.
On to `O=C1NCc2cc(OCCNC[C@H](O)COc3ccc4c(c3)OC[C@@H](COCC3CC3)O4)ccc21` [NDD-825], for which the Tolerability result in data set [4] (300 mg/kg once daily p.o. for 7 d (highest dose tested)) is “well tolerated”. The Change in triglycerides entry in data set [4] (7-d repeat oral dosing, top dose) was “dose-related increase in triglycerides”. Moreover, the MTD at 7 d in data set [4] (male, Crl:CD, in vivo, 7-d repeat oral dosing, read-out: Maximum tolerated dose) is greater than 300 mg/kg/day. The Tmax in data set [4] (male, Crl:CD, plasma, oral 20, 90 or 300 mg/kg, read-out: tmax (toxicokinetics)) fell in the range of 2 to 8 h. Besides, in data set [4] (oral, 20 to 300 mg/kg/d), the “Increase of AUC0-t for a 15-fold increase in dose” value is listed as 31.4 fold and the “Increase of Cmax for a 15-fold increase in dose” value was found to be 12.4 fold. For the same molecule, the “Effect on basal HR” value in data set [2] (conscious rats, oral gavage 1 mg/kg (d 1), n = 3) is given as “small but significant lowering of basal HR”. Besides, the “Lowering of basal HR and reduction in isoprenaline-stimulated HR” value in data set [2] (conscious rats, oral gavage 3 and 10 mg/kg on subsequent days, compared with 1 mg/kg) is reported as “more pronounced”. In addition, the “Changes in HQC responses to isoprenaline” value in data set [2] (conscious rats, oral gavage, any dose level (1, 3, 10 mg/kg)) is recorded as “No significant changes”. Besides, in data set [2], the “Effect on basal and isoprenaline-stimulated HR after oral gavage” value was “caused a reduction of basal and isoprenaline-stimulated HR”. Besides, the “P450 in vitro clearance CLint, CYP2E1” value on CYP2E1 is 0.02 μl/min/pmol P450. At CYP2D6, the “P450 in vitro clearance CLint, CYP2D6” value is 0.02 μl/min/pmol P450. In addition, the intrinsic clearance (microsomal CLint) in data set [3] turned out to be 0.18 ± 0.2 µL/min/mg.
